Test results reported in paper PMC4127593, “Novel human D-amino acid oxidase inhibitors stabilize an active-site lid-open conformation” (Bioscience Reports, 2014).
“Also recorded” adds a separate entry of the source. Where two headings read alike, the source gives them in different places.

How the values were obtained:
[1] = target: T1, hDAAO (human D-amino acid oxidase) (Homo sapiens, UniProt P14920); assay: hDAAO inhibition assay, Amplex Red format, D-serine as substrate; assay type: biochemical; conditions: for IC50: 0.73 nM His-hDAAO, 5 mM D-serine, 450 nM FAD, pH 7.4, mean±S.D.; for IC50 values relative to compound 3: in several of the biochemical assays
T1 construct: hexaHis (N); made in house
Experimental: (§1) All enzymatic assays were conducted at room temperature (23–24°C) in 96-well plate format. Dose response data to generate IC50 data were analysed via Prism (Graphpad Software) or by a script executed by Pipeline Pilot (Accelrys).
(§2) For our assay, N-terminal hexaHis (His)-tagged hDAAO (prepared as described previously [32]), HRP (horseradish peroxidase), FAD, and compound inhibitor were incubated for 20–30 min. After that pre-incubation period, D-serine and Amplex Red were added and reaction proceeded for 1 hour. Fluorescent product, caused by hydrogen peroxide-dependent, Amplex Red oxidation during hDAAO-catalysed substrate turnover, was measured on a FlexStation II (Molecular Devices) in endpoint mode with these settings: excitation 530 nm, emission 590 nm, cutoff 590 nm and photomultiplier tube on Low. […] For the counter assay, hDAAO was omitted and 800 nM hydrogen peroxide (Sigma) was included.

[2] = target: T2, hDAAO (Homo sapiens, UniProt P14920); assay: D-serine and FAD saturation experiments (mechanism of inhibition, Ki); assay type: biochemical; conditions: for Mechanism of inhibition: D-serine saturation at 40 μM FAD, FAD saturation at 50 mM D-serine; for Ki: global fit of D-serine saturation data to equations (3) and (4), mean±S.D.
T2 construct: hexaHis (N); made in house
Experimental: To determine inhibitor mechanism of action (D-serine- or FAD-competition), saturation experiments were performed using the Amplex Red system. Keeping D-serine or FAD constant, concentration of the other substrate was varied, and hDAAO enzymatic product was measured fluorescently as described above; these saturation tests were conducted in the presence of variable amounts of inhibitor. In these experiments, there was no preincubation period, such that hDAAO was exposed to D-serine, FAD and inhibitor simultaneously. […] After a 1 h reaction, product was measured using the FlexStation II in the endpoint mode. Data were plotted and fit with a one site, specific binding equation (Graphpad Prism): (2) y=Vmax×x/KM+x
Equation (2) permitted a determination of Vmax and KM at variable inhibitor concentration for a determination of competitive, uncompetitive or non-competitive profile. For D-serine competitive inhibitors, the same data were fit using the GraphPad Prism ‘Competitive inhibition’ equation to derive a global Ki value: (3) KM,obs=KM(1+[I]Ki) (4) y=Vmax×x/KM,obs+x

[3] = target: HRP/hydrogen peroxide detection system (Armoracia rusticana, UniProt P00433); assay: Counter assay (Amplex Red; hDAAO omitted, hydrogen peroxide included); conditions: Amplex Red detection system without hDAAO
Experimental: as §2

[4] = target: rDAAO (rat DAAO) (Rattus norvegicus, UniProt O35078); assay: rDAAO inhibition assay, Amplex Red format
Experimental: as §1, §2

[5] = target: T2, hDAAO; assay: Jump-dilution assay (reversibility, apparent dissociation rate); assay type: biochemical; conditions: for koff: jump-dilution
Experimental: The assay mixture was similar to that described above for the Amplex Red-based assay system. […] After a 30 min pre-incubation to form inhibited complexes, 195 μl of reaction mixture was added. Compared with the standard assay, 50 mM D-serine was utilized as the hDAAO substrate. […] Immediately after adding the reaction mixture, fluorescent substrate was monitored kinetically by the FlexStation II. Data were fit using the following equation [38] in which Pis the fluorescent product formed, tis the time, vs is the final, steady-state reaction velocity, vi is the initial reaction velocity, and k is the koff: (1) [P]=vst+vi−vs/k(1−e^−kt)

[6] = target: T2, hDAAO; assay: LC–MS-based hDAAO inhibition assay, D-phenylglycine as substrate; assay type: biochemical; conditions: 5 nM His-hDAAO, 5 mM D-phenylglycine, 450 nM FAD; mean±S.D.
Experimental: as §1
For the LC–MS-based hDAAO inhibition assay, his-hDAAO, FAD and compound inhibitors were incubated for 20–30 min. After that period, D-phenylglycine was added and reaction proceeded for 1 h. […] Following the 1 h enzymatic reaction, an equal volume of 100% (v/v) acetonitrile was added. Quantitation of benzylformic acid concentrations was performed using negative ion liquid chromatography/mass spectrometry/mass spectrometry (LC–MS/MS). A 2 μl aliquot of sample was injected onto an ultra-high performance liquid chromatographic system (UPLC Waters Corp) equipped with an API 5500 QTrap mass spectrometer detector (Applied Biosystems/MDS Sciex) operated in the negative TurboIonSpray® mode. […] The mobile phases used for elution consisted of 1.0 mM ammonium formate with 0.2% (v/v) formic acid in water (A) and 1.0 mM ammonium formate with 0.2% (v/v) formic acid in acetonitrile (B) at a total flow rate of 0.600 ml/min. Wash solvent 1 was 3% formic acid in acetonitrile and wash solvent 2 was 3% formic acid in water. Calibration standards were injected once before and once after the analysis of unknown samples to construct a standard curve. A linear weighted (1/concentration^2) regression analysis of the analyte peak area ratio versus theoretical concentration was used to produce calibration curves from standards.

[7] = In vivo brain penetration after intraperitoneal dosing; conditions: mouse, brain and plasma, ip; mice, dosed intraperitoneally; results not shown; read-out: brain:plasma compound ratio
Source text: Multiple groups have pursued the discovery of potent, brain-penetrant, drug-like hDAAO inhibitors for use in treating schizophrenia and other nervous system disorders. Thus, the identification of a novel hDAAO conformation could guide the design of the next generation of hDAAO inhibitors. […] Like all existing high-affinity hDAAO inhibitors, interaction of these compounds with Arg^283 of hDAAO requires a carboxylic acid or other electronegative moiety, a feature that is known to reduce brain penetration. […] Potency gained by optimizing ligand binding in these hDAAO regions could conceivably reduce the need for extensive Arg^283 association, and, thus, could facilitate the creation of novel inhibitors of hDAAO.

[8] = 80 μM FAD pre-incubation, 50 mM D-serine, mean±S.D.

Chain of rDAAO (rat DAAO) (O35078 whole entry): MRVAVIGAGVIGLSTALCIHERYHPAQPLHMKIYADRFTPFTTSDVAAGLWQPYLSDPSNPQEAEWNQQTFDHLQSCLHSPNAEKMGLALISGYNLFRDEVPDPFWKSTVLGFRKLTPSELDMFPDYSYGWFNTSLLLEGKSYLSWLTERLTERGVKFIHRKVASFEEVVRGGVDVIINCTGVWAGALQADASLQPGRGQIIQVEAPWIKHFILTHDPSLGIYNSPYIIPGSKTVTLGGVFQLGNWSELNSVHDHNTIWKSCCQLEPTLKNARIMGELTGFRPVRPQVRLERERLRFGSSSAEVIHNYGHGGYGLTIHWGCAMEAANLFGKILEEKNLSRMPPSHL
T1 sequence (P14920 whole entry): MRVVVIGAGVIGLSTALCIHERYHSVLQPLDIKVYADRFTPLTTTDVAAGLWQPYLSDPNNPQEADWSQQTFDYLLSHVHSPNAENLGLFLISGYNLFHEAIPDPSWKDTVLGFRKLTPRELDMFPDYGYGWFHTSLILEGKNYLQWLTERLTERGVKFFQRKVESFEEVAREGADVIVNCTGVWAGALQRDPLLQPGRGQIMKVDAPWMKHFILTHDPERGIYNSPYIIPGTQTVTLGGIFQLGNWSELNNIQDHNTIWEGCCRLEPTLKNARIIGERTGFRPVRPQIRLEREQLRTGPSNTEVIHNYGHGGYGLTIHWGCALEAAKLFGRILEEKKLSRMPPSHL
T2 sequence (P14920 whole entry): as above
Chain of HRP/hydrogen peroxide detection system (P00433 31-338): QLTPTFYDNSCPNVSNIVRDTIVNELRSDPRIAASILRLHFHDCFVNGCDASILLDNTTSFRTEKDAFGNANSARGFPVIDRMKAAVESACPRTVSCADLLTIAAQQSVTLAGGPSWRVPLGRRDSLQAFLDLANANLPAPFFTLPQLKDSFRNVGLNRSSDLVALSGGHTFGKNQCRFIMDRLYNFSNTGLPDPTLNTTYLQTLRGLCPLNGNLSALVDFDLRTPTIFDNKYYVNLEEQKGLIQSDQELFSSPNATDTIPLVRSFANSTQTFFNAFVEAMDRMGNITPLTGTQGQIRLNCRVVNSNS

Row | SMILES | IC50 [1] | Mechanism of inhibition [2] | IC50 [4] | IC50 [6] | other results
1 | Nc1ncnc2c1ncn2[C@@H]1O[C@H](COP(=O)(O)OP(=O)(O)O)[C@@H](O)[C@H]1O [ADP, reference compound] | 580000 ± 80000 nM | FAD-competitive inhibitor of hDAAO; also recorded: D-serine mixed competition, FAD competitive | – | – | –
2 | O=C(O)c1cc2occc2[nH]1 [Compound 1, 4H-furo[3,2-b]pyrrole-5-carboxylic acid, reference compound] | – | – | 87 ± 11 nM | – | inhibition in the counter assay [3]: did not display inhibition
3 | Cc1cc(=O)oc2cc(O)c(CCC(=O)O)cc12 [Compound 4] | 18000 nM | – | – | – | hDAAO inhibitory potency weaker than compound 2 ([1]; relative to compound 2): approximately 500 fold

Further molecules by falling IC50 [1], results first:

Row | IC50 [1] | Mechanism of inhibition [2] | IC50 [4] | IC50 [6] | SMILES | other results
4 | 54 ± 10 nM | – | 130 nM | 13 nM | O=c1[nH]nc(CCc2ccc(O)cc2O)cc1O [Compound 5, 6-(2,4-dihydroxyphenethyl)-4-hydroxypyridazin-3(2H)-one] | IC50 values relative to compound 3 [1]: 5–10 fold
5 | 37 ± 14 nM | D-serine competitive, FAD uncompetitive | 4000 ± 1400 nM | 230 ± 180 nM | O=C(O)CCc1cc2c(-c3ccccc3)cc(=O)oc2cc1O [Compound 2, 3-(7-hydroxy-2-oxo-4-phenyl-2H-chromen-6-yl)propanoic acid] | inhibition in the counter assay [3]: did not display inhibition; inhibition at 0.2 µM ([1]; 200 nM compound): > 80%; hDAAO inhibition after dilution ([5]; 5 nM compound, 50 mM D-serine recovery conditions): no significant inhibition; reversibility of inhibition ([5]; 200 nM then 5 nM jump dilution): reversible inhibition; koff [5, 8]: 0.12 ± 0.02 (8) per min; Ki [2]: 7 ± 1.4 nM; Kp [7]: < 0.05
6 | 20 ± 5 nM | D-serine competitive, FAD uncompetitive | 47 ± 16 nM | 110 ± 20 nM | O=c1cc(-c2ccccc2)c2cc(CCc3cc(O)c(=O)[nH]n3)c(O)cc2o1 [Compound 3, 4-hydroxy-6-(2-(7-hydroxy-2-oxo-4-phenyl-2H-chromen-6-yl)ethyl)pyridazin-3(2H)-one] | more potent as hDAAO inhibitor than compound 2 ([1]; relative to compound 2): approximately 2 fold; dissociative half-life ([5]; from koff): ~1 h; koff [5, 8]: 0.015 ± 0.03 (3) per min; koff ([5]; read-out: off-rate (koff) (converted)): 0.00025 s⁻¹; Ki [2]: < 10 nM; Kp [7]: < 0.05
7 | 7.2 ± 1 nM | – | 83 ± 7 nM | 24 nM | COc1ccc(CCc2cc(O)c(=O)[nH]n2)c(OC)c1 [Compound 6, 6-(2,4-dimethoxyphenethyl)-4-hydroxypyridazin-3(2H)-one] | IC50 values relative to compound 3 [1]: 5–10 fold
